Results from paper PMC6271681, “Discovery of Novel c-Met Inhibitors Bearing a 3-Carboxyl Piperidin-2-one Scaffold” (Molecules, 2014).

Legend:
c-Met kinase = c-Met kinase (Homo sapiens, UniProt P08581); experiment: c-Met kinase assay (ELISA, purified recombinant protein); assay type: biochemical; conditions: for IC50: ELISA, poly(Glu,Tyr)4:1 substrate, two separate experiments; for inhibition at 10 µM / c-Met inhibition rate @10 μM: compound at 10 μM; for inhibition at 10 µM: read-out: c-Met inhibition rate @10 μM; for inhibition at 1 µM: read-out: c-Met inhibition rate @1 μM
Experimental: The effects of indicated compound on the activities of c-Met kinases were determined using enzyme-linked immunosorbent assays (ELISAs) with purified recombinant proteins. Briefly, 20 μg/mL poly (Glu,Tyr)4:1 (Sigma, St. Louis, MO, USA) was pre-coated in 96-well plates as a substrate. A 50-μL aliquot of 10 μmol/L ATP solution diluted in kinase reaction buffer (50 mmol/L HEPES [pH 7.4], 50 mmol/L MgCl2, 0.5 mmol/L MnCl2, 0.2 mmol/L Na3VO4, and 1 mmol/L DTT) was added to each well; 1 μL of various concentrations of indicated compound diluted in 1% DMSO (v/v) (Sigma) were then added to each reaction well. DMSO (1%, v/v) was used as the negative control. The kinase reaction was initiated by the addition of purified c-Met tyrosine kinase proteins diluted in 49 μL of kinase reaction buffer. After incubation for 60 min at 37 °C, the plate was washed three times with phosphate-buffered saline (PBS) containing 0.1% Tween 20 (T-PBS). Anti-phosphotyrosine (PY99) antibody (100 μL; 1:500, diluted in 5 mg/mL BSA T-PBS) was then added. After a 30-min incubation at 37 °C, the plate was washed three times, and 100 μL horseradish peroxidase-conjugated goat anti-mouse IgG (1:2000, diluted in 5 mg/mL BSA T-PBS) was added. The plate was then incubated at 37 °C for 30 min and washed 3 times. A 100-μL aliquot of a solution containing 0.03% H2O2 and 2 mg/ml o-phenylenediamine in 0.1 mol/L citrate buffer (pH 5.5) was added. The reaction was terminated by the addition of 50 μL of 2 mol/L H2SO4 as the color changed, and the plate was analyzed using a multi-well spectrophotometer (SpectraMAX 190, Molecular Devices, Sunnyvale, CA, USA) at 490 nm. […] The IC50 values were calculated from the inhibition curves in two separate experiments.

MKN45 cells = experiment: Cell proliferation assay (SRB, 72 h); assay type: cell-based; conditions: MKN-45, MKN45 human gastric cancer cell line with constitutively active c-Met
Experimental: Cells were seeded in 96-well tissue culture plates. On the next day, the cells were exposed to various concentrations of compounds and further cultured for 72 h. Cell proliferation was then determined using sulforhodamine B (SRB, Sigma, St. Louis, MO, USA). The IC50 values were calculated by concentration-response curve fitting using the four-parameter method.

c-Met = conditions: in Figure 2; cited from earlier work
[1] = printed in the c-Met IC50 column
[2] = compound at 1 μM, printed in the c-Met IC50 column

Sequence of c-Met kinase (P08581 25-1390): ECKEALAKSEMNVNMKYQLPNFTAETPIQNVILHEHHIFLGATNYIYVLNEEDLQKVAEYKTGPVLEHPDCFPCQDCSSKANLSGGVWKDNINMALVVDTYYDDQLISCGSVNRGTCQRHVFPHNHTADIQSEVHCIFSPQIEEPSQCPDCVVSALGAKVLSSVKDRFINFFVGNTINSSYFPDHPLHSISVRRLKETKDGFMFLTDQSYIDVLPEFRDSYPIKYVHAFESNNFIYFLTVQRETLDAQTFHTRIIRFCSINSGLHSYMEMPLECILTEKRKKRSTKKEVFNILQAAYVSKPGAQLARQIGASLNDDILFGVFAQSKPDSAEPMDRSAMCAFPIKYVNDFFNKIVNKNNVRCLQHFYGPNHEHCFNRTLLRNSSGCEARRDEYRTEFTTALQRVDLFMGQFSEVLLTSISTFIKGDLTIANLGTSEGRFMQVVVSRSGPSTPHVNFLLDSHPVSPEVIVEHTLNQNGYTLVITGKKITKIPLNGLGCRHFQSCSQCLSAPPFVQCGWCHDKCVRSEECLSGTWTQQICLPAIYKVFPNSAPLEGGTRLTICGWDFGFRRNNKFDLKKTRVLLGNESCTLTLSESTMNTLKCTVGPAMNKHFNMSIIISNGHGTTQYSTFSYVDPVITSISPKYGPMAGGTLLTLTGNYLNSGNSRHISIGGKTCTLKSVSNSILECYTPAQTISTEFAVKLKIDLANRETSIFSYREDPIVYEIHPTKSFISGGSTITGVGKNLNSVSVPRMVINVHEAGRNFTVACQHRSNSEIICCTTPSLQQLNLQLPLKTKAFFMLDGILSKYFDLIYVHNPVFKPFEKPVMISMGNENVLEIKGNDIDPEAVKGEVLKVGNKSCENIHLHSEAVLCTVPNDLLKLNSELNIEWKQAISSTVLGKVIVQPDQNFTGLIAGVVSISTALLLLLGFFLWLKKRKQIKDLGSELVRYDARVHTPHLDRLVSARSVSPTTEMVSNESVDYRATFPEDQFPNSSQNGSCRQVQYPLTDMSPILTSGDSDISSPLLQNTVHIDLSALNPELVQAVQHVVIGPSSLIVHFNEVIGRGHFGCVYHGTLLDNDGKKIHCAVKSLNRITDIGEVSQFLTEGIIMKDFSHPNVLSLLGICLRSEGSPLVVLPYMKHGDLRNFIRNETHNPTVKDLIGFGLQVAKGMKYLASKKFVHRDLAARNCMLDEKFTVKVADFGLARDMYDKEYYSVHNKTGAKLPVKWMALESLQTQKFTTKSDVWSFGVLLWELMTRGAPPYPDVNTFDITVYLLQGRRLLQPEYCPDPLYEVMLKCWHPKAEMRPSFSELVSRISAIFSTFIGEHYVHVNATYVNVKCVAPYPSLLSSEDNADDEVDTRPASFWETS

Compound | IC50 (MKN45 cells) [nM] | inhibition at 10 µM (c-Met kinase; [1]) [%] | other results
CCOc1ccn(-c2ccc(F)cc2)c(=O)c1C(=O)Nc1ccc(Oc2ccnc(N)c2Cl)c(F)c1 [BMS-777607, N-(4-(2-amino-3-chloropyridin-4-yloxy)-3-fluorophenyl)-4-ethoxy-1-(4-fluorophenyl)-2-oxo-1,2-dihydropyridine-3-carboxamide, reference compound] | 290 ± 20 | – | IC50 (c-Met kinase): 3.7 ± 1.3 nM; IC50 (c-Met): 3.9 nM
NC(=O)c1nccc(Oc2ccc(NC(=O)C3CCCN(c4ccc(F)cc4)C3=O)cc2F)c1Cl (centres unmarked) [Compound 15a, 3-Chloro-4-(2-fluoro-4-(1-(4-fluorophenyl)-2-oxopiperidine-3-carboxamido)phenoxy)picolinamide] | – | 63.9 | –
NC(=O)c1nccc(Oc2ccc(NC(=O)C3(Cl)CCCN(c4ccc(F)cc4)C3=O)cc2F)c1Cl (centres unmarked) [Compound 15b, 3-Chloro-4-(4-(3-chloro-1-(4-fluorophenyl)-2-oxopiperidine-3-carboxamido)-2-fluorophenoxy)-picolinamide] | – | 90.2 | inhibition at 1 µM (c-Met kinase; [2]): 38.7%
COc1ccc(CNc2nccc(Oc3ccc(NC(=O)C4CCCN(c5ccc(F)cc5)C4=O)cc3F)n2)cc1 (centres unmarked) [Compound 18a, N-(3-fluoro-4-((2-((4-methoxybenzyl)amino)pyrimidin-4-yl)oxy)phenyl)-1-(4-fluorophenyl)-2-oxo-piperidine-3-carboxamide] | – | 28.4 | –
COc1ccc(CNc2nccc(Oc3ccc(NC(=O)C4(Cl)CCCN(c5ccc(F)cc5)C4=O)cc3F)n2)cc1 (centres unmarked) [Compound 18b, 3-Chloro-N-(3-fluoro-4-((2-((4-methoxybenzyl)amino)pyrimidin-4-yl)oxy)phenyl)-1-(4-fluorophenyl)-2-oxopiperidine-3-carboxamide] | – | 10 | –
Nc1nccc(Oc2ccc(NC(=O)C3CCCN(c4ccc(F)cc4)C3=O)cc2F)n1 (centres unmarked) [Compound 19a, N-(4-((2-aminopyrimidin-4-yl)oxy)-3-fluorophenyl)-1-(4-fluorophenyl)-2-oxopiperidine-3-carbox-amide] | – | 59.1 | inhibition at 1 µM (c-Met kinase; [2]): 27.5%
Nc1nccc(Oc2ccc(NC(=O)C3(Cl)CCCN(c4ccc(F)cc4)C3=O)cc2F)n1 (centres unmarked) [Compound 19b, N-(4-((2-aminopyrimidin-4-yl)oxy)-3-fluorophenyl)-3-chloro-1-(4-fluorophenyl)-2-oxopiperidine-3-carboxamide] | – | 52.5 | inhibition at 1 µM (c-Met kinase; [2]): 28.3%
COc1cc2nccc(Oc3ccc(NC(=O)C4CCCN(c5ccc(F)cc5)C4=O)cc3F)c2cc1OC (centres unmarked) [Compound 20a, N-(4-((6,7-dimethoxyquinolin-4-yl)oxy)-3-fluorophenyl)-1-(4-fluorophenyl)-2-oxopiperidine-3-carbox-amide] | – | 38.4 | –
COc1cc2nccc(Oc3ccc(NC(=O)C4(Cl)CCCN(c5ccc(F)cc5)C4=O)cc3F)c2cc1OC (centres unmarked) [Compound 20b, 3-Chloro-N-(4-((6,7-dimethoxyquinolin-4-yl)oxy)-3-fluorophenyl)-1-(4-fluorophenyl)-2-oxopiperidine-3-carboxamide] | 570 ± 40 | – | –
COc1cc2nccc(Oc3ccc(NC(=O)C4(C)CCCN(c5ccc(F)cc5)C4=O)cc3F)c2cc1OC (centres unmarked) [Compound 20c, N-(4-((6,7-dimethoxyquinolin-4-yl)oxy)-3-fluorophenyl)-1-(4-fluorophenyl)-3-methyl-2-oxopiperidine-3-carboxamide] | 650 ± 130 | – | IC50 (c-Met kinase): 11.2 ± 4.1 nM
CCC1(C(=O)Nc2ccc(Oc3ccnc4cc(OC)c(OC)cc34)c(F)c2)CCCN(c2ccc(F)cc2)C1=O (centres unmarked) [Compound 20d, N-(4-((6,7-dimethoxyquinolin-4-yl)oxy)-3-fluorophenyl)-3-ethyl-1-(4-fluorophenyl)-2-oxopiperidine-3-carboxamide] | 2950 ± 120 | – | IC50 (c-Met kinase): 19.1 ± 4.5 nM
CCCCC1(C(=O)Nc2ccc(Oc3ccnc4cc(OC)c(OC)cc34)c(F)c2)CCCN(c2ccc(F)cc2)C1=O (centres unmarked) [Compound 20e, N-(4-((6,7-dimethoxyquinolin-4-yl)oxy)-3-fluorophenyl)-3-butyl-1-(4-fluorophenyl)-2-oxopiperidine-3-carboxamide] | 16000 ± 800 | – | IC50 (c-Met kinase): 64 ± 10.8 nM
N-(4-((7H-pyrrolo[2,3-d]pyrimidin-4-yl)oxy)-3-fluorophenyl)-1-(4-fluorophenyl)-2-oxopiperidine-3-carboxamide [Compound 17a] | – | – | c-Met inhibition rate @1 μM (c-Met kinase; [2]): 41.9%@1 μM; c-Met inhibition rate @10 μM (c-Met kinase; [1]): 70.7%@10 μM
N-(4-((7H-pyrrolo[2,3-d]pyrimidin-4-yl)oxy)-3-fluorophenyl)-3-chloro-1-(4-fluorophenyl)-2-oxo-piperidine-3-carboxamide [Compound 17b] | – | – | c-Met inhibition rate @10 μM (c-Met kinase; [1]): 15.4%@10 μM
